Results from PubChem BioAssay AID2060896 (Molecular Pharmacology Branch, DTP, NCI, 2025).
“And” between values parts separate entries of the source, which are not always exact repeats. Identical values can stand only once.

Tested on: 941728-121-R-J1-PDC complex spheroid viability
Experiment: Anticancer human tumor 941728-121-R-J1-PDC patient-derived lung adenocarcinoma cell line growth inhibition [RAS]
Details: for viability, T/C: stronger effect = lower value
Source text: RAS pathway inhibitors in Combinations in Complex Spheroids
A high-throughput screen of multi-cell type tumor spheroids was designed to identify active combinations of RAS pathway inhibitors and targeted small molecules. Complex spheroids include a stromal component modeled by human endothelial cells (HUVEC) and fibroblasts modeled by human mesenchymal stem cells (MSCs). The concentration ranges selected for each drug and investigational agent were based upon clinically achievable concentrations if the clinical Cmax of the agent was known.
Compounds. The drugs and investigational agents: abemaciclib (NSC768073), cobimetinib (NSC768068), divarasib (GDC6063, NSC841802), docetaxel (NSC628503), GDC-1971 (RLY-1971, NSC841576), gemcitabine (NSC613327), inavolisib (NSC800729), ipatasertib (NSC767898), KB-0742 (NSC834161), MRTX-1133 (NSC836407), osimertinib (NSC779217), RMC-4630 (NSC839698), RMC-6236 (NSC851965), RMC-6291 (NSC852671), Ro-3306 (NSC812927), sapanisertib (NSC764658), SN-38 (NSC673596), staurosporine (NSC755774), SY5609 (NSC837396), and tovorafenib (DAY101, NSC766906), were obtained from the National Cancer Institute (NCI) Developmental Therapeutics Program Chemical Repository. The FDA-approved anticancer drug set is available from the NCI Developmental Therapeutics Program. […] The stock solutions were prepared in dimethyl sulfoxide (DMSO, Sigma-Aldrich, St. Louis, MO, cat. D2650) at 800-fold the tested concentration and stored at -70 degrees C prior to their use. All drugs and investigational agents were tested over a range starting from a high concentration at or near the clinical Cmax and decreasing in half-log increments. If the clinical Cmax for an agent had not been determined, the highest concentration tested was 10 microM.
Cell Culture. All cells were maintained in an incubator at 37 degrees C and 5% CO2 with 95% humidity. The PDC lines were cultured according to standard operating procedures established by the NCI PDMR. All PDCs were thawed and cultured in Matrigel-coated flasks prepared with a working solution of 1X Ham's F-12 nutrient mix, without supplementation (Invitrogen, Waltham, MA, cat. 11765054), 100 U/mL penicillin-streptomycin (Invitrogen, cat. 15140122), and 2.5% Matrigel (Corning Inc., Corning, NY, cat. 354248) for the first three passages. The 362531-283-R-J2-PDC and 782815-120-R-J1-PDC lines were cultured in 6C/Colon 1B media, which includes advanced DMEM/F-12 (Thermo Fisher Scientific, cat. 12634028), 10 mM HEPES (Thermo Fisher Scientific, cat. 15630080), 1X GlutaMAX supplement (Thermo Fisher Scientific, cat. 35050061), 0.1 mg/mL primocin (InvivoGen, San Diego, CA, cat. ant-pm-2), 10% defined fetal bovine serum, heat inactivated (HyClone Laboratories Inc., Logan, UT, cat. SH30070.03HI), 50% L-WRN conditioned media (ATCC, cat. CRL-3276), 1.25 mM N-Acetyl-L-cysteine (Sigma-Aldrich, cat. A9165), 10 mM nicotinamide (Sigma-Aldrich, cat. N0636), 1X B-27 supplement (Thermo Fisher Scientific, cat. 17504044), 1X N-2 supplement (Thermo Fisher Scientific, cat. 17502048), 50 ng/mL human EGF (Thermo Fisher Scientific, cat. PHG0311), and 10 microM Y-27632 dihydrochloride (Tocris Bioscience, cat. 1254). The K12877-001-R-J1-PDC line was cultured in 6I media, which includes all 6C/Colon 1B media plus 10 ng/mL human FGF-10 (PeproTech, cat. 100-26), 1 ng/mL human FGF-2 (PeproTech, cat. 100-18B), 1 µM prostaglandin E2 (Tocris Bioscience, cat. 2296), […] hydrocortisone (Sigma-Aldrich, cat. H4001), and […] bovine insulin (Sigma-Aldrich, cat. I6634). The K86415-001-R-J1-PDC line was cultured in 6D media, which includes all 6C/Colon 1B media components minus the L-WRN conditioned media. The 485176-168-R4-J1-PDC was cultured in PANC media, which includes all 6C/Colon 1B media plus 100 ng/mL human FGF-10 (PeproTech, cat. 100-26), 500 nM SB-431542 (Selleckchem, cat. S1067), and 10 nM gastrin (Tocris Bioscience, cat. 3006). […]

[1] = compound alone, run of 07/15/2024
[2] = compound alone, run of 07/09/2024
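Further: spheroids exposed to compounds for 7 days before readout.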
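Wherever viability, T/C is given: 100% = DMSO vehicle control viability.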

| Compound | IC50 (curve of compound) | viability, T/C (compound 0.0316 µM) | viability, T/C (compound 0.1 µM) | viability, T/C (compound 0.316 µM) | viability, T/C (compound 1 µM) | viability, T/C (compound 3.16 µM) | viability, T/C (compound 10 µM) | viability, T/C (compound 0.00316 µM) | viability, T/C (compound 0.01 µM) | also measured |
| --- | --- | --- | --- | --- | --- | --- | --- | --- | --- | --- |
| C#Cc1c(F)ccc2cc(O)cc(-c3ncc4c(N5CC6CCC(C5)N6)nc(OCC56CCCN5CC(F)C6)nc4c3F)c12 (stereo unspecified) | – | 87.4% [middle of 8 runs] | 82.9% [middle of 8 runs] | 61.2% [middle of 8 runs] | 41.3% [middle of 8 runs] | 32.1% [middle of 8 runs] | 23.3% [middle of 8 runs] | – | – | IC50 [1]: 603 nM [middle of 8 runs] |
| C=CC(=O)N1CCN(c2nc(OCC3CCCN3C)nc3c(F)c(-c4nc(N)cc(C)c4C(F)(F)F)c(Cl)cc23)C(C)C1 (stereo unspecified) | < 3.16 nM | 19.9% [middle of 12 runs] | 19.5% [middle of 12 runs] | 22.8% [middle of 12 runs] | 21% [middle of 12 runs] | – | – | 21.7% [middle of 12 runs] | 19.7% [middle of 12 runs] | IC50 [1]: < 3.16 nM |
| C=CC(=O)Nc1cc(Nc2nccc(-c3cn(C)c4ccccc34)n2)c(OC)cc1N(C)CCN(C)C | – | 68.2% [middle of 4 runs] | 67.7% [middle of 4 runs] | 55.6% [middle of 4 runs] | 47.3% [middle of 4 runs] | – | – | 98.4% [middle of 4 runs] | 82.8% [middle of 4 runs] | – |
| CC(C)NCC(C(=O)N1CCN(c2ncnc3c2C(C)CC3O)CC1)c1ccc(Cl)cc1 (stereo unspecified) | 844 nM and 5470 nM and 2640 nM | 93.8% [middle of 4 runs] | 90.7% [middle of 4 runs] | 74.2% [middle of 4 runs] | – | 54.6% [middle of 4 runs] | 42.7% [middle of 4 runs] | – | – | – |
| CC1(C)CCC(Nc2ncc(C(F)(F)F)c(-c3c[nH]c4c(P(C)(C)=O)c(C#N)ccc34)n2)CN1 (stereo unspecified) | > 300 nM | – | – | – | – | – | – | – | – | viability, T/C (compound 0.000949 µM): 83.9% [middle of 4 runs]; viability, T/C (compound 0.003 µM): 79.2% [middle of 4 runs]; viability, T/C (compound 0.00949 µM): 62.7% [middle of 4 runs]; viability, T/C (compound 0.03 µM): 63.8% [middle of 4 runs]; viability, T/C (compound 0.0949 µM): 65% [middle of 4 runs]; viability, T/C (compound 0.3 µM): 53.4% [middle of 4 runs] |
| CCN1CCN(Cc2ccc(Nc3ncc(F)c(-c4cc(F)c5nc(C)n(C(C)C)c5c4)n3)nc2)CC1 | > 1000 nM | 65.2% [middle of 4 runs] | 57.7% [middle of 4 runs] | 70.8% [middle of 4 runs] | 72.4% [middle of 4 runs] | – | – | 93.9% [middle of 4 runs] | 80.5% [middle of 4 runs] | – |
| CCn1c(-c2cc(N3CCN(C)CC3)cnc2C(C)OC)c2c3cc(ccc31)-c1csc(n1)CC(NC(=O)C1CC1C)C(=O)N1CCCC(N1)C(=O)OCC(C)(C)C2 (stereo unspecified) | – | – | – | – | – | – | – | – | – | viability, T/C (compound 0.000949 µM): 28.7% [middle of 8 runs]; viability, T/C (compound 0.003 µM): 23.8% [middle of 8 runs]; viability, T/C (compound 0.00949 µM): 17.1% [middle of 8 runs]; viability, T/C (compound 0.03 µM): 13.9% [middle of 8 runs]; viability, T/C (compound 0.0949 µM): 14.7% [middle of 8 runs]; viability, T/C (compound 0.3 µM): 13.4% [middle of 8 runs]; IC50 [2]: < 0.949 nM |
| CCn1c(-c2cccnc2C(C)OC)c2c3cc(ccc31)N1CCOC(CC(NC(=O)C(C(C)C)N(C)C(=O)C3(F)CCN(C(=O)C#CC(C)(C)N(C)C)CC3)C(=O)N3CCCC(N3)C(=O)OCC(C)(C)C2)C1 (stereo unspecified) | – | – | – | – | – | – | – | – | – | viability, T/C (compound 0.000949 µM): 22.6% [middle of 8 runs]; viability, T/C (compound 0.00949 µM): 24.6% [middle of 8 runs]; viability, T/C (compound 0.03 µM): 24.1% [middle of 8 runs]; viability, T/C (compound 0.0949 µM): 24.9% [middle of 8 runs]; viability, T/C (compound 0.3 µM): 24.9% [middle of 8 runs]; IC50 [2]: < 0.949 nM and 4.59 nM |
| Cc1nc(N2CCC3(CC2)COC(C)C3N)c(CO)nc1Sc1ccnc(N)c1Cl (stereo unspecified) | – | 65.7% [middle of 4 runs] | 55.1% [middle of 4 runs] | 43.4% [middle of 4 runs] | 41.8% [middle of 4 runs] | 42.2% [middle of 4 runs] | 40.1% [middle of 4 runs] | – | – | – |
| O=C(c1ccc(F)c(F)c1Nc1ccc(I)cc1F)N1CC(O)([C@@H]2CCCCN2)C1 | – | – | 42.2% [middle of 4 runs] | 32.5% [middle of 4 runs] | 27.8% [middle of 4 runs] | – | – | 80.3% [middle of 4 runs] | 69% [middle of 4 runs] | – |

Continued, in another order:

| IC50 (curve of compound) | Compound | viability, T/C (compound 0.0316 µM) | viability, T/C (compound 0.1 µM) | viability, T/C (compound 0.316 µM) | viability, T/C (compound 1 µM) | viability, T/C (compound 3.16 µM) | viability, T/C (compound 10 µM) | viability, T/C (compound 0.00316 µM) | viability, T/C (compound 0.01 µM) | also measured |
| --- | --- | --- | --- | --- | --- | --- | --- | --- | --- | --- |
| 11.4 nM [middle of 4 runs] | CC(C)n1nc(-c2ccc3oc(N)nc3c2)c2c(N)ncnc21 | 40.9% [middle of 4 runs] | 34.5% [middle of 4 runs] | – | – | – | – | 60.5% [middle of 4 runs] | 55.1% [middle of 4 runs] | viability, T/C (compound 0.000316 µM): 102% [middle of 4 runs]; viability, T/C (compound 0.001 µM): 86.9% [middle of 4 runs] |
| 144 nM [middle of 4 runs] | CC(Nc1ccc2c(c1)OCCn1cc(N3C(=O)OCC3C(F)F)nc1-2)C(N)=O (stereo unspecified) | 81% [middle of 4 runs] | 53.6% [middle of 4 runs] | 40.8% [middle of 4 runs] | 42.5% [middle of 4 runs] | 37.6% [middle of 4 runs] | 34.7% [middle of 4 runs] | – | – | – |
| 5940 nM and > 10000 nM and 7430 nM | CC1(O)CCCC1n1c(=O)c(C(F)F)cc2cnc(NC3CCN(S(C)(=O)=O)CC3)nc21 (stereo unspecified) | 87% [middle of 4 runs] | 84.6% [middle of 4 runs] | 75.3% [middle of 4 runs] | 83.9% [middle of 4 runs] | – | 51.8% [middle of 4 runs] | – | – | – |
| 44.2 nM and > 300 nM and 89 nM | CCc1c2c(nc3ccc(O)cc13)-c1cc3c(c(=O)n1C2)COC(=O)[C@]3(O)CC | – | – | – | – | – | – | – | – | viability, T/C (compound 0.000949 µM): 85.2% [middle of 4 runs]; viability, T/C (compound 0.003 µM): 73.3% [middle of 4 runs]; viability, T/C (compound 0.00949 µM): 62.9% [middle of 4 runs]; viability, T/C (compound 0.03 µM): 67.4% [middle of 4 runs]; viability, T/C (compound 0.0949 µM): 58.9% [middle of 4 runs]; viability, T/C (compound 0.3 µM): 50% [middle of 4 runs] |
| 8.88 µM [middle of 4 runs] | C[C@@H](NC(=O)c1ncnc(N)c1Cl)c1ncc(C(=O)Nc2cc(C(F)(F)F)c(Cl)cn2)s1 | 114% [middle of 4 runs] | 112% and 129% and 115% (2×) | 120% [middle of 4 runs] | 112% [middle of 4 runs] | 83.2% [middle of 4 runs] | 45.7% [middle of 4 runs] | – | – | – |
| < 31.6 nM | NC1c2ccccc2OC12CCN(c1cnc3c(N4CCCc5ncccc54)n[nH]c3n1)CC2 (stereo unspecified) | 48.2% [middle of 4 runs] | 44.8% [middle of 4 runs] | 36% [middle of 4 runs] | 47.1% [middle of 4 runs] | 41.8% [middle of 4 runs] | 49% [middle of 4 runs] | – | – | – |
